Assay results published in PubChem BioAssay AID330 (DTP/NCI, 2004).
Several values for one entry are separate records, joined by “and”; a condition that tells them apart may be missing. Identical values can stand only once. Inconclusive results and toxic doses are left out.

Test system: P388 leukemia ip, CD2F1 mice, survival T/C
Assay: NCI In Vivo Anticancer Drug Screen. Data for tumor model P388 Leukemia (intraperitoneal) in CD2F1 (CDF1) mice
Settings: endpoint: median survival time, higher = longer survival
In short: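 Mice carrying the transplanted tumor received test compound or vehicle. Survival was recorded in each group, and the value is the treated-group measurement divided by that of the vehicle-treated control group.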

[1] = dose: 25.0 mg/kg/injection, schedule: Q04DX002 (ip), vehicle: saline with Tween-80
[2] = dose: 50.0 mg/kg/injection, schedule: Q04DX002 (ip), vehicle: saline with Tween-80
[3] = dose: 100.0 mg/kg/injection, schedule: Q04DX002 (ip), vehicle: saline with Tween-80
[4] = dose: 50.0 mg/kg/injection, schedule: Q01DX009 (ip), vehicle: Klucel (hydroxypropylcellulose) (HPC)
[5] = dose: 100.0 mg/kg/injection, schedule: Q01DX009 (ip), vehicle: Klucel (hydroxypropylcellulose) (HPC)
[6] = dose: 200.0 mg/kg/injection, schedule: Q01DX009 (ip), vehicle: Klucel (hydroxypropylcellulose) (HPC)
[7] = dose: 12.5 mg/kg/injection, schedule: Q04DX002 (ip), vehicle: saline with Tween-80
[8] = dose: 60.0 mg/kg/injection, schedule: Q01DX005 (ip), vehicle: saline with Tween-80
[9] = dose: 120.0 mg/kg/injection, schedule: Q01DX005 (ip), vehicle: saline with Tween-80
[10] = dose: 240.0 mg/kg/injection, schedule: Q01DX005 (ip), vehicle: saline with Tween-80
[11] = dose: 50.0 mg/kg/injection, schedule: Q01DX009 (ip), vehicle: saline with Tween-80
[12] = dose: 100.0 mg/kg/injection, schedule: Q01DX009 (ip), vehicle: saline with Tween-80
[13] = dose: 200.0 mg/kg/injection, schedule: Q01DX009 (ip), vehicle: saline with Tween-80
[14] = dose: 12.5 mg/kg/injection, schedule: Q01DX009 (ip), vehicle: saline with Tween-80
[15] = dose: 25.0 mg/kg/injection, schedule: Q01DX009 (ip), vehicle: saline with Tween-80
[16] = dose: 60.0 mg/kg/injection, schedule: Q01DX005 (ip), vehicle: saline
[17] = dose: 120.0 mg/kg/injection, schedule: Q01DX005 (ip), vehicle: saline

CC(=O)OC1C=CCC2C(=O)c3cccc(O)c3C(=O)C12 (stereo not drawn)
T/C (dose: 60.0 mg/kg/injection, schedule: Q01DX005 (ip), vehicle: Klucel (hydroxypropylcellulose) (HPC)): 107 % of control
T/C (dose: 120.0 mg/kg/injection, schedule: Q01DX005 (ip), vehicle: Klucel (hydroxypropylcellulose) (HPC)): 105 % of control
T/C (dose: 240.0 mg/kg/injection, schedule: Q01DX005 (ip), vehicle: Klucel (hydroxypropylcellulose) (HPC)): 97 % of control

CNC(=O)OCCC(OC(=O)NC)C1CCC2C3CC=C4CC(OC(C)=O)CCC4(C)C3CCC12C (stereo not drawn)
T/C (dose: 100.0 mg/kg/injection, schedule: Q01DX001 (ip), vehicle: Klucel (hydroxypropylcellulose) (HPC)): 103 % of control
T/C (dose: 200.0 mg/kg/injection, schedule: Q01DX001 (ip), vehicle: Klucel (hydroxypropylcellulose) (HPC)): 104 % of control
T/C (dose: 400.0 mg/kg/injection, schedule: Q01DX001 (ip), vehicle: Klucel (hydroxypropylcellulose) (HPC)): 110 % of control

CCCCCCCC/C=C\C(O)=C1\C(=O)NC(CCCNC(=O)OCc2ccccc2)C1=O (stereo not drawn)
T/C [1]: 100 % of control
T/C [2]: 100 % of control
T/C [3]: 86 % of control
T/C (dose: 200.0 mg/kg/injection, schedule: Q04DX002 (ip), vehicle: saline with Tween-80): 91 % of control
T/C (dose: 400.0 mg/kg/injection, schedule: Q04DX002 (ip), vehicle: saline with Tween-80): 103 % of control

O=C1/C(=C/c2ccc(/C=C3\CCc4ccccc4C3=O)cc2)CCc2ccccc21
T/C [4]: 102 % of control
T/C [5]: 99 % of control
T/C [6]: 101 % of control

CCCN(CCC)C(=O)Cn1cc([N+](=O)[O-])s/c1=N/C(=O)NCC
T/C (dose: 25.0 mg/kg/injection, schedule: Q01DX001 (ip), vehicle: saline with Tween-80): 97 % of control
T/C (dose: 50.0 mg/kg/injection, schedule: Q01DX001 (ip), vehicle: saline with Tween-80): 99 % of control
T/C (dose: 100.0 mg/kg/injection, schedule: Q01DX001 (ip), vehicle: saline with Tween-80): 106 % of control

[Br][Pt+2][Br].[NH-]C(c1ccccc1)C([NH-])c1ccccc1 (stereo not drawn)
T/C [7]: 112 % of control

Nc1ncnc2c1ncn2Cc1cccnc1
T/C (dose: 50.0 mg/kg/injection, schedule: Q01DX005 (ip), vehicle: Klucel (hydroxypropylcellulose) (HPC)): 98 % of control
T/C (dose: 100.0 mg/kg/injection, schedule: Q01DX005 (ip), vehicle: Klucel (hydroxypropylcellulose) (HPC)): 98 % of control
T/C (dose: 200.0 mg/kg/injection, schedule: Q01DX005 (ip), vehicle: Klucel (hydroxypropylcellulose) (HPC)): 100 % of control

O=C(Nc1ccc(Cl)cc1)Nc1nnc(COc2ccc(Cl)c(Cl)c2)o1
T/C (dose: 15.0 mg/kg/injection, schedule: Q01DX005 (ip), vehicle: saline with Tween-80): 87 % of control and 90 % of control
T/C (dose: 30.0 mg/kg/injection, schedule: Q01DX005 (ip), vehicle: saline with Tween-80): 90 % of control
T/C [8]: 89 % of control and 93 % of control
T/C [9]: 98 % of control
T/C [10]: 91 % of control

CN(C)c1ccc(-c2nc(=O)[nH]c(=O)s2)cc1
T/C [11]: 102 % of control
T/C [12]: 100 % of control
T/C [13]: 98 % of control

O=C(O)c1ccc(N=CC2CO2)cc1 (stereo not drawn)
T/C [11]: 99 % of control
T/C [12]: 102 % of control
T/C [13]: 87 % of control

c1cc(C2CO2)ccc1Oc1ccc(C2CO2)cc1 (stereo not drawn)
T/C [4]: 103 % of control
T/C [5]: 88 % of control
T/C [6]: 93 % of control

Cc1cc(-c2c(C)[nH]n(-c3cc(C)c4cc(F)ccc4n3)c2=O)n(-c2cc(C)c3cc(F)ccc3n2)n1
T/C [8]: 102 % of control
T/C [9]: 101 % of control
T/C [10]: 98 % of control

C=C(C)C1CC2=C(C(=O)OC)C=C(O2)C(C(=C)C)C2OC(=O)/C(=C\C1O)C2O (stereo not drawn)
T/C (dose: 4.0 mg/kg/injection, schedule: Q01DX005 (ip), vehicle: saline + alcohol): 103 % of control
T/C (dose: 8.0 mg/kg/injection, schedule: Q01DX005 (ip), vehicle: saline + alcohol): 103 % of control
T/C (dose: 16.0 mg/kg/injection, schedule: Q01DX005 (ip), vehicle: saline + alcohol): 99 % of control
T/C (dose: 32.0 mg/kg/injection, schedule: Q01DX005 (ip), vehicle: saline + alcohol): 99 % of control
T/C (dose: 64.0 mg/kg/injection, schedule: Q01DX005 (ip), vehicle: saline + alcohol): 101 % of control

CN(c1ccccc1)N1C(=O)CC2(CCCC2)C1=O
T/C (dose: 100.0 mg/kg/injection, schedule: Q04DX002 (ip), vehicle: Klucel (hydroxypropylcellulose) (HPC)): 103 % of control
T/C (dose: 200.0 mg/kg/injection, schedule: Q04DX002 (ip), vehicle: Klucel (hydroxypropylcellulose) (HPC)): 106 % of control
T/C (dose: 400.0 mg/kg/injection, schedule: Q04DX002 (ip), vehicle: Klucel (hydroxypropylcellulose) (HPC)): 94 % of control

CCOC(=O)/C(C#N)=C/C=C1\C=CC=CN1C
T/C [14]: 95 % of control
T/C [15]: 86 % of control
T/C [11]: 90 % of control

C=CCNS(=O)(=O)c1ccccc1
T/C (dose: 25.0 mg/kg/injection, schedule: Q04DX003 (ip), vehicle: saline with Tween-80): 102 % of control
T/C (dose: 50.0 mg/kg/injection, schedule: Q04DX003 (ip), vehicle: saline with Tween-80): 107 % of control
T/C (dose: 100.0 mg/kg/injection, schedule: Q04DX003 (ip), vehicle: saline with Tween-80): 94 % of control
T/C (dose: 200.0 mg/kg/injection, schedule: Q04DX003 (ip), vehicle: saline with Tween-80): 107 % of control
T/C (dose: 400.0 mg/kg/injection, schedule: Q04DX003 (ip), vehicle: saline with Tween-80): 107 % of control

C(=NCCN=CC1CCCC[N-]1)C1CCCC[N-]1.[Cu+2].[O-][Cl+3]([O-])([O-])O (stereo not drawn)
T/C [14]: 115 % of control
T/C [15]: 98 % of control

O=C(O)c1cc(C(=O)CCCC(=O)c2cc(C(=O)O)c(O)c3ccccc23)c2ccccc2c1O
T/C [14]: 100 % of control
T/C [15]: 100 % of control
T/C [11]: 87 % of control
T/C [12]: 93 % of control

O=[N+]([O-])c1cnc(/C=N/N2CCN(/N=C/c3ncc([N+](=O)[O-])[nH]3)CC2)[nH]1
T/C [14]: 90 % of control
T/C [15]: 89 % of control
T/C [11]: 88 % of control

ClCSc1ccccc1C1=NCCCN1
T/C (dose: 0.78 mg/kg/injection, schedule: Q01DX005 (ip), vehicle: saline): 107 % of control
T/C (dose: 1.56 mg/kg/injection, schedule: Q01DX005 (ip), vehicle: saline): 107 % of control
T/C (dose: 3.12 mg/kg/injection, schedule: Q01DX005 (ip), vehicle: saline): 102 % of control

C=C(Br)S(=O)(=O)OCCCl
T/C (dose: 6.25 mg/kg/injection, schedule: Q01DX005 (ip), vehicle: saline with Tween-80): 105 % of control
T/C (dose: 12.5 mg/kg/injection, schedule: Q01DX005 (ip), vehicle: saline with Tween-80): 104 % of control

CN=C(N)N/N=C(\C)c1ccc2c(c1)Cc1cc(Cl)ccc1-2
T/C [7]: 112 % of control
T/C [1]: 113 % of control and 118 % of control
T/C [2]: 113 % of control and 118 % of control
T/C [3]: 102 % of control

ClC(Cl)(Cl)C1[O][Sb]([c]2ccccc2)([c]2ccccc2)([c]2ccccc2)[O]1 (stereo not drawn)
T/C [4]: 90 % of control
T/C [5]: 101 % of control

Cc1ccc(N2N=NC3C4CCC(C)(C4(C)C)C32O)cc1 (stereo not drawn)
T/C (dose: 50.0 mg/kg/injection, schedule: Q04DX002 (ip), vehicle: other): 92 % of control
T/C (dose: 100.0 mg/kg/injection, schedule: Q04DX002 (ip), vehicle: other): 98 % of control
T/C (dose: 200.0 mg/kg/injection, schedule: Q04DX002 (ip), vehicle: other): 93 % of control

Cc1ccc(/C=C/C(=N/NC(=O)c2ccccc2)C(C)CN(C)C)cc1 (stereo not drawn)
T/C [16]: 99 % of control
T/C [17]: 111 % of control

Nc1nc(-c2ccncc2)cc(-c2cc(-c3ccncc3)nc(N)n2)n1
T/C [16]: 102 % of control
T/C [17]: 96 % of control

CCOC(=O)CCOc1ccccc1N(CCCl)CCCl
T/C (dose: 3.13 mg/kg/injection, schedule: Q04DX003 (ip), vehicle: saline with Tween-80): 150 % of control
T/C (dose: 6.25 mg/kg/injection, schedule: Q04DX003 (ip), vehicle: saline with Tween-80): 163 % of control
